Experimental data: BindingDB's records for PubMed 40104800 (Jinan University)

Biological target: Eukaryotic elongation factor 2 kinase (mouse)
Assay: Inhibition of eEF2K in mouse HT-22 cells preincubated for 20 mins followed by [33P]-ATP addition measured after 120 mins by radiometric Hotspot kinase assay

IC50: 136 µM
Compound: C=C(c1[nH]c2ccccc2c1CN1C/C(=C/C)[C@@H]2CC(=O)c3[nH]c4ccccc4c3C[C@H]1C2C(=O)OC)[C@H]1CCN(C)C/C1=C\C (stereo partly specified)
